In PubChem BioAssay (NCI):
Several values for one entry are separate records, joined by “and”; a condition that tells them apart may be missing. Equal entries are not always repeated.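 Dose response: 5 concentrations. Exposure: 48 h. Format: 96-well plates. Endpoint: linear interpolation; highest concentration if not reached. The concentration for 50% growth inhibition is given as GI50. The concentration for full growth arrest is given as TGI.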 Where a SMILES comes first, the peptide text is derived from it. The star is where a group is joined. Boc = CC(C)(C)OC(=O)*; OBn = c1ccc(CO*)cc1

What was measured:
Assay in all cases: NCI tumour cell line growth inhibition, 48 h
[1] = test system: RXF 393 renal
[2] = test system: NCI-H226 lung
[3] = test system: A549 NSCLC
[4] = test system: EKVX NSCLC
[5] = test system: K-562 leukemia
[6] = test system: TK-10 renal
[7] = test system: PC-3 prostate
[8] = test system: UO-31 renal
[9] = test system: CAKI-1 renal
[10] = test system: SK-MEL-28 melanoma

## CC(C)CC(NC(=O)OC(C)(C)C)C(=O)NC(CC(=O)OCc1ccccc1)C(=O)OCc1ccccc1 (stereo not drawn) (Boc-Leu-Asp(OBn)-OBn; configuration not given here)
[1]
  TGI: 90.5 µM
[2]
  TGI: > 100 µM
[3]
  TGI: > 100 µM
[4]
  TGI: > 100 µM
[5]
  TGI: > 100 µM
[6]
  TGI: 60.9 µM
[7]
  TGI: 84.8 µM
[8]
  TGI: 75 µM
[9]
  TGI: > 100 µM

## O=C1CC(C(OCc2ccccc2)C(OCc2ccccc2)C(COCc2ccccc2)OCc2ccccc2)CC(=O)N1 (stereo not given)
[1]
  TGI: > 100 µM
[2]
  TGI: > 100 µM
[3]
  TGI: > 100 µM
[4]
  TGI: > 100 µM
[10]
  TGI: > 100 µM
[5]
  GI50: > 100 µM and 41 µM
  TGI: > 100 µM
[6]
  TGI: > 100 µM
[7]
  TGI: > 100 µM
[8]
  GI50: > 100 µM and 45.7 µM
  TGI: > 100 µM

## COc1ccc(/C=C/C(=O)c2ccc(-n3cc(CN4CCN(c5cc6c(cc5F)c(=O)c(C(=O)O)cn6C5CC5)CC4)nn3)cc2)cc1OC
[2]
  GI50: 2.39 µM
  TGI: 6.63 µM
[3]
  GI50: 2.98 µM
  TGI: > 100 µM
[4]
  GI50: 4.24 µM
  TGI: > 100 µM
[10]
  GI50: 2.77 µM
  TGI: 10.4 µM
[5]
  GI50: 0.977 µM
  TGI: > 100 µM
[6]
  GI50: 5.61 µM
  TGI: > 100 µM
[7]
  GI50: 2.54 µM
  TGI: 15.7 µM
[8]
  GI50: 1.73 µM
  TGI: 9.01 µM
[9]
  GI50: 5.1 µM
  TGI: 19 µM

## CCOC(=O)CCC1(C(=O)OCC)CCCC1=O (stereo not given)
[1]
  TGI: > 100 µM
[2]
  TGI: > 100 µM
[3]
  TGI: > 100 µM
[4]
  TGI: > 100 µM
[10]
  TGI: > 100 µM
[5]
  TGI: > 100 µM
[6]
  TGI: > 100 µM
[8]
  TGI: > 100 µM
[9]
  TGI: > 100 µM

## COc1cc(C2C(Cl)C(=O)N2NC(=O)c2ccc(NC(C)=O)cc2)ccc1O (stereo not given)
[1]
  TGI: > 100 µM
[2]
  TGI: > 100 µM
[3]
  TGI: > 100 µM
[4]
  TGI: > 100 µM
[10]
  TGI: > 100 µM
[5]
  TGI: > 100 µM
[6]
  TGI: > 100 µM
[8]
  TGI: > 100 µM
[9]
  TGI: > 100 µM

## O=C1CC(C(CC(=O)c2ccccc2)c2ccccc2)C(=O)c2ccccc2N1 (stereo not given)
[2]
  TGI: 77.8 µM
[3]
  TGI: > 100 µM
[4]
  TGI: > 100 µM
[5]
  TGI: > 100 µM
[7]
  TGI: > 100 µM
[8]
  TGI: 40.4 µM

## CC1(C)C2CCC3(OCCO3)C1C(O)C2 (stereo not given)
[1]
  TGI: > 100 µM
[2]
  TGI: > 100 µM
[3]
  TGI: > 100 µM
[4]
  TGI: > 100 µM
[10]
  TGI: > 100 µM
[5]
  TGI: > 100 µM
[6]
  TGI: > 100 µM
[8]
  TGI: > 100 µM
[9]
  TGI: > 100 µM

## COc1ccc(C2OCCN2C)cc1 (stereo not given)
[1]
  TGI: > 100 µM
[2]
  TGI: > 100 µM
[3]
  TGI: > 100 µM
[4]
  TGI: > 100 µM
[5]
  TGI: > 100 µM
[6]
  TGI: > 100 µM
[7]
  TGI: > 100 µM
[8]
  TGI: > 100 µM
[9]
  TGI: > 100 µM

## COC(=O)CC(C(C(=O)OCc1ccccc1)C(C)O)N1C(=O)OC(c2ccccc2)C1c1ccccc1 (stereo not given)
[1]
  TGI: > 100 µM
[2]
  TGI: > 100 µM
[3]
  TGI: > 100 µM
[4]
  TGI: > 100 µM
[10]
  TGI: > 100 µM
[5]
  TGI: > 100 µM
[6]
  TGI: > 100 µM
[8]
  TGI: > 100 µM

## CCOc1ccc(N=NC2C(=O)N(C(=O)CC(=O)Nc3ccccc3)N=C2C)cc1 (stereo not given)
[1]
  TGI: > 100 µM
[2]
  TGI: > 100 µM
[3]
  TGI: > 100 µM
[4]
  TGI: > 100 µM
[10]
  TGI: > 100 µM
[6]
  TGI: > 100 µM
[7]
  TGI: > 100 µM
[8]
  TGI: > 100 µM
[9]
  TGI: > 100 µM

## Oc1ccccc1C1C=C(c2ccccc2)NC(N2CCCCC2)=C1c1nc2ccccc2[nH]1 (stereo not given)
[1]
  TGI: 24.7 µM
[2]
  TGI: 35.1 µM
[3]
  TGI: 29.2 µM
[4]
  TGI: 18.8 µM
[10]
  TGI: 30.6 µM
[5]
  TGI: > 100 µM
[6]
  TGI: 34.3 µM
[7]
  TGI: 24.5 µM
[8]
  TGI: 23.7 µM

## CC(=O)NC(CCCCN)C(=O)NCc1ccccc1 (stereo not given)
[1]
  TGI: > 100 µM
[2]
  TGI: > 100 µM
[3]
  TGI: > 100 µM
[4]
  TGI: > 100 µM
[10]
  TGI: > 100 µM
[5]
  TGI: > 100 µM
[6]
  TGI: > 100 µM
[8]
  TGI: > 100 µM
[9]
  TGI: > 100 µM

## N#C/C(=C\c1ccc([N+](=O)[O-])s1)c1nc2cc(Cl)ccc2s1
[2]
  GI50: 0.69 µM
  TGI: 2.36 µM
[3]
  GI50: 3.12 µM
  TGI: > 100 µM
[4]
  GI50: 1.63 µM
  TGI: 5.82 µM
[5]
  GI50: 0.264 µM
  TGI: > 100 µM
[7]
  GI50: 1.31 µM
  TGI: 3.42 µM
[8]
  GI50: 0.602 µM
  TGI: 2.8 µM

## CN1N=C(c2ccncc2)OC1c1cccc(C(F)(F)F)c1 (stereo not given)
[1]
  TGI: > 100 µM
[2]
  TGI: > 100 µM
[3]
  TGI: > 100 µM
[4]
  TGI: > 100 µM
[10]
  TGI: > 100 µM
[5]
  TGI: > 100 µM
[6]
  TGI: > 100 µM
[7]
  TGI: > 100 µM
[8]
  TGI: > 100 µM

## COc1cccc(/C(Cl)=C(\C=O)c2cccc(OC)c2)c1
[1]
  TGI: 25.1 µM
[2]
  TGI: 24.8 µM
[3]
  TGI: 40.8 µM
[4]
  TGI: 38.7 µM
[10]
  TGI: 25.5 µM
[5]
  TGI: 46 µM
[6]
  TGI: 51.2 µM
[8]
  TGI: 68.1 µM
[9]
  TGI: 70 µM

## CCOC(=O)C(C)Sc1nnc(COc2ccccc2OC)n1-c1ccccc1 (stereo not given)
[1]
  TGI: > 100 µM
[2]
  TGI: > 100 µM
[3]
  TGI: > 100 µM
[4]
  TGI: > 100 µM
[10]
  TGI: > 100 µM
[5]
  TGI: > 100 µM
[6]
  TGI: > 100 µM
[8]
  TGI: > 100 µM
[9]
  TGI: > 100 µM

## O=c1c2ccccc2nc(-c2ccccc2)n1NC(=S)Nc1ccc(Cl)cc1
[1]
  TGI: > 100 µM
[2]
  TGI: > 100 µM
[3]
  TGI: > 100 µM
[10]
  TGI: 91.6 µM
[5]
  TGI: > 100 µM
[6]
  TGI: > 100 µM
[8]
  TGI: > 100 µM
[9]
  TGI: > 100 µM

## Cc1cc(NC(=O)C2C3C=CC(O3)C2C(=O)O)no1 (stereo not given)
[1]
  TGI: 31 µM
[2]
  TGI: > 100 µM
[3]
  TGI: > 100 µM
[4]
  TGI: > 100 µM
[10]
  TGI: > 100 µM
[5]
  TGI: 42.5 µM
[6]
  TGI: > 100 µM
[8]
  TGI: > 100 µM

## Cc1cccc2c1c1ccc3c(c1n2C)C(=O)C=CC3=O
[1]
  TGI: 7.86 µM
[2]
  TGI: 32.8 µM
[3]
  TGI: 37.7 µM
[4]
  TGI: 38.2 µM
[10]
  TGI: 24.4 µM
[5]
  TGI: 6.03 µM
[6]
  TGI: 7.19 µM
[8]
  TGI: 9.83 µM
[9]
  TGI: 10.4 µM

## CC1(C)CC2(C)CC1CC2(O)c1ccccc1 (stereo not given)
[1]
  TGI: > 100 µM
[2]
  TGI: > 100 µM
[3]
  TGI: > 100 µM
[10]
  TGI: > 100 µM
[5]
  TGI: > 100 µM
[6]
  TGI: > 100 µM
[7]
  TGI: > 100 µM
[8]
  TGI: > 100 µM
[9]
  TGI: > 100 µM

## CC(=O)OC1C2CCC3C(C)(O)C4CC(O)C(C)(C)C4(O)C(O)CC13CC2(C)O (stereo not given)
[2]
  TGI: > 100 µM
[3]
  TGI: > 100 µM
[4]
  TGI: > 100 µM
[5]
  TGI: > 100 µM
[6]
  TGI: > 100 µM
[7]
  TGI: > 100 µM
[8]
  TGI: > 100 µM
[9]
  TGI: > 100 µM

## Cc1cc(C)nc(/C(=N\NC(N)=O)C(=O)Nc2nc3ccc(C)cc3s2)c1
[1]
  TGI: > 100 µM
[2]
  TGI: > 100 µM
[3]
  TGI: > 100 µM
[4]
  TGI: > 100 µM
[10]
  TGI: > 100 µM
[5]
  TGI: > 100 µM
[6]
  TGI: > 100 µM
[8]
  TGI: > 100 µM
[9]
  TGI: > 100 µM
